# Reference: ChEMBL document CHEMBL1255203 (Bioorg Med Chem Lett, 2010)
# pIC50: −log10 of the molar value.
# Key:
# Type in all cases: ADME
# Cytochrome P450 2C9 = Cytochrome P450 2C9 (Homo sapiens, UniProt P11712); experiment: Inhibition of human CYP2C9
# Cytochrome P450 2D6 = Cytochrome P450 2D6 (Homo sapiens, UniProt P10635); experiment: Inhibition of human CYP2D6
# Cytochrome P450 3A4 = Cytochrome P450 3A4 (Homo sapiens, UniProt P08684); experiment: Inhibition of human CYP3A4
# Cytochrome P450 1A2 = target: T1, Cytochrome P450 1A2 (Homo sapiens, UniProt P05177); experiment: Inhibition of human CYP1A2
# T1 sequence (P05177 whole entry): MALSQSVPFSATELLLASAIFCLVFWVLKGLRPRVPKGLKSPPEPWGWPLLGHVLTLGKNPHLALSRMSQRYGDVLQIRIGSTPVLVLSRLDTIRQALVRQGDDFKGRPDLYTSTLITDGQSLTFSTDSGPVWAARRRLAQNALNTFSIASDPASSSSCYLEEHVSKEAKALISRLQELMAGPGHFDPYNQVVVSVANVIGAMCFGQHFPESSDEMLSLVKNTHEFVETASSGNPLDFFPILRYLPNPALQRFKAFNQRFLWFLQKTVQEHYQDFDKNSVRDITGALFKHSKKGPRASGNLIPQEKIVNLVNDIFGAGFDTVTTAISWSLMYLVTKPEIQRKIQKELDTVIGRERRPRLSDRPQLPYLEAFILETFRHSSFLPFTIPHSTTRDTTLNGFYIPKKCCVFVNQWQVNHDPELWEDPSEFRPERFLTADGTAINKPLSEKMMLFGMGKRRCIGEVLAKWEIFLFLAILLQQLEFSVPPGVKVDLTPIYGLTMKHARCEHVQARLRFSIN
# Sequence of Cytochrome P450 2D6 (P10635 whole entry): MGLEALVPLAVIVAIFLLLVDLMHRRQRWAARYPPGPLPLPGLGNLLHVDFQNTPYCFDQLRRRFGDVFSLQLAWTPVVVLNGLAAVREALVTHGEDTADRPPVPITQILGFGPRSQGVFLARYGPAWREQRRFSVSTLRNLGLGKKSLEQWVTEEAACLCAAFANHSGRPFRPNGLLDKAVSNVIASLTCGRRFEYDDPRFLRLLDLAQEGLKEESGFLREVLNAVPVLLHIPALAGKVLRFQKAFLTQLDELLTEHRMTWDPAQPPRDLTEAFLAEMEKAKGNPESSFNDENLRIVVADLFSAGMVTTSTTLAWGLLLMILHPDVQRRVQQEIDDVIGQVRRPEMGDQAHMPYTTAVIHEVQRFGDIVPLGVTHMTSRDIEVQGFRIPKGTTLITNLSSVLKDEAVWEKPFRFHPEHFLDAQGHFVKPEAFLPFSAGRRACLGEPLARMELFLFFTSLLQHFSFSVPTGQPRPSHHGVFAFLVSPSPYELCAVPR
# Sequence of Cytochrome P450 3A4 (P08684 whole entry): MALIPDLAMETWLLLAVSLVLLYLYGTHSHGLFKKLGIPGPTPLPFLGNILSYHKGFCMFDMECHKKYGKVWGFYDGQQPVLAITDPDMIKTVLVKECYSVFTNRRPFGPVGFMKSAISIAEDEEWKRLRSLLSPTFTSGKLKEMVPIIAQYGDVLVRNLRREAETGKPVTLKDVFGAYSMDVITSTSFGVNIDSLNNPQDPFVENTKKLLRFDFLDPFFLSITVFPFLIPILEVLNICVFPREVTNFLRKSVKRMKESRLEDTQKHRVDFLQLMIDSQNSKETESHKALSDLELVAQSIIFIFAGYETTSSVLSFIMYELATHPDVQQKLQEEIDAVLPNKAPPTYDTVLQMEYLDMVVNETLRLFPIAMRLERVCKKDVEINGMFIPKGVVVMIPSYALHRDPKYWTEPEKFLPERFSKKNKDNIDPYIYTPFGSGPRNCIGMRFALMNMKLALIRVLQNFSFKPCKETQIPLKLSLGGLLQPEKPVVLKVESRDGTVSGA
# Sequence of Cytochrome P450 2C9 (P11712 whole entry): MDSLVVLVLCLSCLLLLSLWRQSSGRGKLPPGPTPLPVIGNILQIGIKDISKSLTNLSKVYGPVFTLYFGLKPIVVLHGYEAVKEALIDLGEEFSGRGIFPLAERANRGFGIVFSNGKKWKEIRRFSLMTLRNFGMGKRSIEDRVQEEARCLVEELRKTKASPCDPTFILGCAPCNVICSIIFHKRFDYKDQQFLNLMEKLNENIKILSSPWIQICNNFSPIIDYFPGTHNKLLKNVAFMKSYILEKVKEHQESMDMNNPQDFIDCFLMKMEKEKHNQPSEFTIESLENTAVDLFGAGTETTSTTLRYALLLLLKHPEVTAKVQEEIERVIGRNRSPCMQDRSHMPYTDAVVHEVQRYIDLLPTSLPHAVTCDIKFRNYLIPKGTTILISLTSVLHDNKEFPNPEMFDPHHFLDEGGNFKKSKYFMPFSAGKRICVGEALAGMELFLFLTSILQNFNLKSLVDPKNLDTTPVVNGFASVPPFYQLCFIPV
pIC50 (Cytochrome P450 2C9),pIC50 (Cytochrome P450 2D6),pIC50 (Cytochrome P450 3A4),pIC50 (Cytochrome P450 1A2),SMILES
5.28,< 4.30,< 4.30,–,O=c1cc(-c2ccccc2)oc2cc(O)cc(O)c12 [CHRYSIN]
–,–,–,6.62,O=c1cc(-c2ccccc2)oc2cc(O)ccc12 [7-HYDROXYFLAVONE]
